# From patent publication US9284283B2, “Macrocyclic compounds for modulating IL-17” (ENSEMBLE THERAPEUTICS CORPORATION, priority 2012, dated 2016)
# Target: T1, recombinant human IL17a (binding to its receptor IL17R) (Homo sapiens, UniProt Q16552)
# T1 construct: purchased R&D Systems 317-ILB (IL17a); 177-IR (IL17R/Fc)
# T1 sequence (Q16552 20-155 limits assumed): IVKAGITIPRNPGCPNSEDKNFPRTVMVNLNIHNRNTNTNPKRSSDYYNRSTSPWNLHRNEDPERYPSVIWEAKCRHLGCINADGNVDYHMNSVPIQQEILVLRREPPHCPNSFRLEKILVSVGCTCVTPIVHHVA
# Assay: IL-17 competition ELISA I (IL17a coated, IL17R/Fc binding)
# Experimental: ELISA I: The ability of the compounds to block binding of IL17a to its receptor, IL17R, was analyzed in a competition ELISA format. High binding 96-well plates (Costar #9018) were coated with 20 nM of recombinant human IL17a (R&D Systems #317-ILB) in PBS (0.64 μg/mL), 100 μL/well, for 30 min at 37′C followed by 5 min at 4′C. Plates were then washed in PBST (PBS/0.05% Tween-20) on a plate washer, (Biotech EL-450) blocked with protein-free blocking buffer (Thermo Scientific #37573) in 250 μL/well for 30 min on shaker at room temperature, and then washed again. Compound dilutions prepared in PBST were added into the wells in duplicates followed by the addition of IL17R/Fc (R&D Systems #177-IR) at a final concentration of 12 nM. Plates were then incubated for 30 min at room temperature on the shaker. Wells with no compound served as a positive “no competitor” control, while wells with no IL17R/Fc and no compound served as a blank negative control. After an additional PBST wash, 50 ng/mL HRP-conjugated goat anti-human Fc IgG (KPL #04-10-20) was added to the plate for 30 min at room temperature, followed by PBST wash and addition of SureBlue™ TMB (KPL #52-00-03). After the sufficient color development, the reaction was fixed by the addition of 100 μL/well 0.5 N HCl and absorbance was measured at 450 nm on Biotek plate reader.
# Data were processed using BioAssay Enterprise v10.1.4 (CambridgeSoft) software. Linear OD λ450 were plotted against log concentration (x) and fitted to a 4-parameter logistic equation. IC50 was calculated using positive ‘no competitor’ control data as an upper limit and blank control as a lower limit in each assay.
row,Structure (SMILES),IC50 [nM]
1,COC(=O)[C@@H]1CCCCNC(=O)CNC(=O)[C@@H](Cc2ccc(NC(=O)[C@H](Cc3ccccc3Cl)NC(=O)c3cccnc3)cc2)NC(=O)CC2(CCCC2)CC(=O)N1 [Compound 250],< 100
2,O=C1CNC(=O)[C@@H](Cc2ccc(NC(=O)[C@H](Cc3ccccc3)NC(=O)Cc3ccccc3)cc2)NC(=O)CC2(CCCC2)CC(=O)NCCCCCN1 [Compound 237],< 100
3,O=C1CNC(=O)[C@@H](Cc2ccc(NC(=O)[C@H](Cc3ccccc3Cl)NC(=O)c3ccc(F)c(F)c3F)cc2)NC(=O)CC2(CCCC2)CC(=O)NCCCCCN1 [Compound 328],100 to 1000
4,CC1(C)CC(=O)NCCCCCNC(=O)CNC(=O)[C@@H](Cc2ccc(NC(=O)[C@H](Cc3cccs3)NC(=O)Cc3ccccc3)cc2)NC(=O)C1 [Compound 255],1000 to 10000
5,O=C1CC2(CCCC2)CC(=O)N[C@H](Cc2ccc(NC(=O)[C@H](Cc3ccccc3Cl)NC(=O)Cc3ccccc3)cc2)C(=O)N[C@@H](Cc2ccccc2)C(=O)NCCCCCN1 [Compound 317],< 100
6,O=C1CNC(=O)[C@@H](Cc2ccc(NC(=O)[C@H](Cc3ccccc3Cl)NC(=O)CN3CCOCC3)cc2)NC(=O)CC2(CCCC2)CC(=O)NCCCCCN1 [Compound 304],100 to 1000
7,O=C1CNC(=O)[C@@H](Cc2ccc(NC(=O)[C@H](Cc3ccccc3Cl)NC(=O)c3cncnc3)cc2)NC(=O)CC2(CCCC2)CC(=O)NCCCCCN1 [Compound 327],< 100
8,CN1CCCCCNC(=O)CC2(CCCC2)CC(=O)N[C@H](Cc2ccc(NC(=O)[C@@H](NC(=O)Cc3ccc(CO)cc3)C3CCCCC3)cc2)C(=O)NCC1=O [Compound 351],100 to 1000
9,O=C1CNC(=O)[C@@H](Cc2ccc(NC(=O)[C@H](Cc3ccccc3Cl)NC(=O)c3ccc(O)c(F)c3)cc2)NC(=O)CC2(CCCC2)CC(=O)NCCCCCN1 [Compound 277],100 to 1000
10,O=C1CNC(=O)[C@@H](Cc2ccc(NC(=O)[C@H](Cc3ccccc3Cl)NC(=O)CN3CCCCC3)cc2)NC(=O)CC2(CCCC2)CC(=O)NCCCCCN1 [Compound 300],100 to 1000
11,CC(=O)N[C@@H](Cc1cccs1)C(=O)Nc1ccc(C[C@H]2NC(=O)CC(C)(C)CC(=O)NCCCCCNC(=O)CNC2=O)cc1 [Compound 256],> 10000
12,O=C1CNC(=O)[C@@H](Cc2ccc(NC(=O)[C@H](Cc3ccccc3Cl)NC(=O)CC3CCOCC3)cc2)NC(=O)CC2(CCCC2)CC(=O)NCCCCCN1 [Compound 275],100 to 1000
13,O=C1CNC(=O)[C@@H](Cc2ccc(NC(=O)[C@H](Cc3ccccc3Cl)NC(=O)c3cc(F)c(F)cc3F)cc2)NC(=O)CC2(CCCC2)CC(=O)NCCCCCN1 [Compound 329],100 to 1000
14,O=C1CNC(=O)[C@@H](Cc2ccc(NC(=O)[C@H](Cc3ccccc3Cl)NC(=O)Cc3ccc(F)cc3F)cc2)NC(=O)CC2(CCCC2)CC(=O)NCCCCCN1 [Compound 296],< 100

# Target: T2, biotinylated human IL-17 (binding to IL17R/Fc) (Homo sapiens, UniProt Q16552)
# T2 construct: purchased R&D Systems 317-ILB (IL-17, biotinylated); 177-IR (IL17R/Fc)
# T2 sequence (Q16552 20-155 limits assumed): T1 sequence (Q16552 20-155 limits assumed)
# Assay: IL-17 competition ELISA II (captured IL17R/Fc, biotinylated IL-17)
# Procedure, shortened: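 Anti-human IgG-coated plates captured IL17R/Fc (10 nM), then compound (5-fold dilutions from 1 μM) and biotinylated human IL-17 (20 nM stock) were added for 30 min at room temperature in PBST. Bound IL-17 detected by streptavidin-HRP/TMB at 450 nm. IC50 from 4-parameter logistic fit between no-competitor and blank controls.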
row,Structure (SMILES),IC50 [nM]
1,O=C1CC2(CCCC2)CC(=O)N[C@H](Cc2ccc(NC(=O)[C@H](Cc3ccccc3Cl)NC(=O)Cc3ccccc3)cc2)C(=O)NCCCCN1 [Compound 391],< 100
2,C[C@H]1NC(=O)[C@@H](Cc2ccc(NC(=O)[C@@H](Nc3nc4ccccc4o3)C3CCCCC3)cc2)NC(=O)CC2(CCCC2)CC(=O)NCCCCCNC1=O [Compound 664],< 100
3,C[C@H]1NC(=O)[C@@H](Cc2ccc(NC(=O)[C@H](Cc3ccccc3Cl)NC(=O)Cc3ccc(F)cc3)cc2)NC(=O)CC2(CCCC2)NC(=O)CCCCCCCNC1=O [Compound 619],< 100
4,CN1C(=O)CC2(CCCC2)CC(=O)NCCCCCCCCNC(=O)[C@H]1Cc1ccc(NC(=O)[C@H](Cc2ccccc2Cl)NC(=O)C2(c3ccc(F)cc3)CC2)cc1 [Compound 505],1000 to 10000
5,O=C1CC2(CCCC2)CC(=O)N[C@H](Cc2ccc(NC(=O)[C@@H](NC(=O)c3cccnc3)C3CCCCC3)cc2)C(=O)NCCCCCCCCCN1 [Compound 407],100 to 1000
6,C[C@H]1NC(=O)[C@@H](Cc2ccc(NC(=O)[C@H](Cc3ccccc3Cl)NC(=O)Cc3ccc(F)cc3)cc2)NC(=O)CC2(CCOCC2)NC(=O)CCCCCCNC1=O [Compound 622],100 to 1000
7,CN1CCOCCOCCNC(=O)[C@@H](Cc2ccc(NC(=O)[C@H](Cc3ccccc3Cl)NC(=O)[C@H](O)c3ccccc3)cc2)NC(=O)CC2(CCCC2)CC1=O [Compound 581],< 100
8,C[C@H]1NC(=O)[C@@H](Cc2ccc(NC(=O)[C@@H](Nc3nc4ccccc4o3)C3CCCCC3)cc2)NC(=O)CC2(CCCC2)CC(=O)N(C)CCCCCN(C)C1=O [Compound 665],< 100
9,O=C1CC2(CCCC2)CC(=O)N[C@H](Cc2ccc(NC(=O)[C@H](Cc3ccccc3Cl)NC(=O)Cc3ccc(F)cc3)cc2)C(=O)N[C@H](Cc2ccccn2)C(=O)NCCCCCN1 [Compound 435],< 100
10,CC(=O)N[C@H](C(=O)Nc1ccc(C[C@H]2NC(=O)CC3(CCCC3)CC(=O)OCCCCCNC(=O)CNC2=O)cc1)C1CCCCC1 [Compound 673],< 100
11,O=C1CNC(=O)[C@@H](Cc2ccc(NC(=O)[C@H](Cc3ccccc3Cl)NC(=O)C(F)F)cc2)NC(=O)CC2(CCCC2)CC(=O)OCCCCCN1 [Compound 675],< 100
12,O=C1CNC(=O)[C@@H](Cc2ccc(NC(=O)[C@@H](NC(=O)Cc3ccccc3)c3ccccc3)cc2)NC(=O)CC2(CCCC2)CC(=O)NCCCCCN1 [Compound 415],100 to 1000
13,CC(=O)NC(C(=O)Nc1ccc(CC2NC(=O)CC3(CCCC3)CC(=O)OCCCCCN(C)C(=O)CNC2=O)cc1)C1CCCCC1 (stereo not shown) [Compound 681],< 100
14,C[C@H]1NC(=O)[C@@H](Cc2ccc(NC(=O)[C@H](Cc3ccccc3Cl)NC(=O)C(F)(F)c3ccccc3)cc2)NC(=O)C[C@H](Cc2ccccc2)NC(=O)CCNC(=O)CCNC1=O [Compound 633],< 100
15,C[C@H]1NC(=O)[C@@H](Cc2ccc(NC(=O)[C@H](Cc3ccccc3Cl)NC(=O)C(F)(F)c3ccccc3)cc2)NC(=O)CC2(CCCC2)NC(=O)CCNC(=O)CCN(C)C1=O [Compound 636],< 100
16,O=C1CC2(CCCC2)CC(=O)N[C@H](Cc2ccc(NC(=O)[C@@H](NC(=O)Cc3ccccc3)C3CCCCC3)cc2)C(=O)NCCCCCCCCCN1 [Compound 350],100 to 1000
17,O=C1CC2(CCCC2)CC(=O)N[C@H](Cc2ccc(NC(=O)[C@@H](NC(=O)Cc3ccc(F)cc3)C3CCCCC3)cc2)C(=O)NCCCCN1 [Compound 410],100 to 1000
18,O=C1CC2(CCCC2)CC(=O)N[C@H](Cc2ccc(NC(=O)[C@H](Cc3ccccc3Cl)NC(=O)Cc3ccc(CO)cc3)cc2)C(=O)NC/C=C/CCCCCN1 [Compound 365],< 100
19,O=C1CC2(CCCC2)CC(=O)N[C@H](Cc2ccc(NC(=O)[C@@H](NC(=O)C(F)(F)c3ccccc3)C3CCCCC3)cc2)C(=O)NCCOCCOCCN1 [Compound 595],< 100
20,O=C1CC2(CCCC2)CC(=O)OCCCCCNC(=O)[C@@H](Cc2ccc(NC(=O)[C@@H](NC(=O)c3cccnc3)C3CCCCC3)cc2)N1 [Compound 423],1000 to 10000
21,COC(=O)[C@@H]1CCCCNC(=O)CNC(=O)[C@@H](Cc2ccc(NC(=O)[C@H](Cc3ccccc3Cl)NC(=O)NCc3ccccc3)cc2)NC(=O)CC2(CCCC2)CC(=O)N1 [Compound 459],< 100
22,CN1CCCC[C@@H](C(=O)O)N(C)C(=O)CC2(CCCC2)CC(=O)N[C@H](Cc2ccc(NC(=O)[C@@H](NC(=O)C(F)(F)c3ccccc3)C3CCCCC3)cc2)C(=O)N[C@H](CCC(N)=O)C1=O [Compound 668],< 100
23,C[C@H]1NC(=O)[C@@H](Cc2ccc(NC(=O)[C@H](Cc3ccccc3Cl)NC(=O)C3(c4ccc(F)cc4)CC3)cc2)NC(=O)CC2(CCCC2)CC(=O)N(C)CCN(C)CCN(C)C1=O [Compound 563],100 to 1000
